# Measured values published in patent publication US20250154138A1, “Small Molecule IL-17A Modulators” (BeiGene, Ltd., priority 2022, published 2025).
# Assays:
# [1] = test system: IL-17-induced GROα secretion from HT-29 cells; test: GROα release assay in human colorectal adenocarcinoma epithelial cell (HT-29, ELISA); format: cell-based; conditions: Homo sapiens, HT-29, 48 h, 10 ng/mL IL-17A, highest concentration 10 μM, read-out: Cellular assay HT29 cell/CXCL1 IC50
# In short: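 IC50 values come from four-parameter fits of GROα levels, quantified by ELISA (450 nm, standard curve) in supernatants. Compounds, 4-fold serially diluted from 10 μM, were mixed 15 min with IL-17A (10 ng/mL final) before 48 h incubation with HT-29 cells at 37°C.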
# [2] = target: human IL-17A / human IL-17RA (Homo sapiens (Human), UniProt Q16552); test: Human IL-17A biochemical assay (HTRF, blocking of IL-17A binding to IL-17RA); conditions: 0.4 nM IL-17A, 0.3 nM IL-17RA, max compound concentration 10 uM
# In short: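 In this time-resolved fluorescence format, the cytokine (0.4 nM) is exposed to compound for 3 h before 0.3 nM receptor is added for 1 h, with all incubations at room temperature in HEPES buffer, pH 7.5. The 620/665 nm signal ratio gives percent inhibition, and IC50 is taken from a 4-parameter curve.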
# Chain of human IL-17A / human IL-17RA (Q16552 24-155): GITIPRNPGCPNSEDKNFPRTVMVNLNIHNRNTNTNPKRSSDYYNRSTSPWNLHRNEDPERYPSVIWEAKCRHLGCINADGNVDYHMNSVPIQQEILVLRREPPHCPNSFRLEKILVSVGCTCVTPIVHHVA
SMILES,IC50 [1],IC50 [2]
"Cn1nccc1C(=O)N[C@H](C(=O)Nc1ccc2c(c1)CC(C(O)C(F)(F)F)(N1CC3(CC3)CNC1=O)C2)C1CCCCC1 (stereo partly drawn) [Example 194, N-((1S)-1-cyclohexyl-2-oxo-2-((2-(6-oxo-5,7-diazaspiro[2.5]octan-5-yl)-2-(2,2,2-trifluoro-1-hydroxyethyl)-2,3-dihydro-1H-inden-5-yl)amino)ethyl)-1-methyl-1H-pyrazole-5-carboxamide]",21 nM,33.8 nM
"CNC(=O)C1(N2CC(C)NC2=O)Cc2ccc(NC(=O)[C@@H](NC(=O)c3ccnn3C)C3CCCCC3)cc2C1 (stereo partly drawn) [Example 1, N-((1S)-1-cyclohexyl-2-((2-(4-methyl-2-oxoimidazolidin-1-yl)-2-(methylcarbamoyl)-2,3-dihydro-1H-inden-5-yl)amino)-2-oxoethyl)-1-methyl-1H-pyrazole-5-carboxamide]",898 nM,379 nM
"CNC(=O)C1(N2CC3(CC3)CNC2=O)Cc2ccc(NC(=O)C(NC(=O)c3ccnn3C)C3CCC(C(C)C)CC3)cc2C1 (centres unmarked) [Example 152, N-(1-(4-isopropylcyclohexyl)-2-((2-(methylcarbamoyl)-2-(6-oxo-5,7-diazaspiro[2.5]octan-5-yl)-2,3-dihydro-1H-inden-5-yl)amino)-2-oxoethyl)-1-methyl-1H-pyrazole-5-carboxamide]",31 nM,10 nM
"Cn1nccc1C(=O)N[C@H](C(=O)Nc1ccc2c(c1)CC(CNc1ccccc1)(N1CC3(CC3)CNC1=O)C2)C1CCCCC1 (stereo partly drawn) [Example 161, N-((1S)-1-cyclohexyl-2-oxo-2-((2-(6-oxo-5,7-diazaspiro[2.5]octan-5-yl)-2-((phenylamino)methyl)-2,3-dihydro-1H-inden-5-yl)amino)ethyl)-1-methyl-1H-pyrazole-5-carboxamide]",146 nM,121 nM
"CC(C)C1(N2CC3(CC3)CNC2=O)Cc2ccc(NC(=O)[C@@H](NC(=O)c3ccnn3C)C3CCCCC3)cc2C1 (stereo partly drawn) [Example 170, N-((1S)-1-cyclohexyl-2-((2-isopropyl-2-(6-oxo-5,7-diazaspiro[2.5]octan-5-yl)-2,3-dihydro-1H-inden-5-yl)amino)-2-oxoethyl)-1-methyl-1H-pyrazole-5-carboxamide]",227 nM,169 nM
"Cc1nonc1C(=O)N[C@H](C(=O)Nc1ccc2c(c1)CC(C(=O)Nc1ccc(Cl)cc1)(N1C[C@@H](C(C)C)NC1=O)C2)C(C1CC1)C1CC1 (stereo partly drawn) [Example 269, N-((2S)-1-((2-((4-chlorophenyl)carbamoyl)-2-((R)-4-isopropyl-2-oxoimidazolidin-1-yl)-2,3-dihydro-1H-inden-5-yl)amino)-3,3-dicyclopropyl-1-oxopropan-2-yl)-4-methyl-1,2,5-oxadiazole-3-carboxamide]",1070 nM,416 nM
"Cn1nccc1C(=O)N[C@H](C(=O)Nc1ccc2c(c1)OC(CN1C[C@@H](C(F)(F)F)NC1=O)C2)C1CCCCC1 (stereo partly drawn) [Example 237, N-((1S)-1-cyclohexyl-2-oxo-2-((2-(((S)-2-oxo-4-(trifluoromethyl)imidazolidin-1-yl)methyl)-2,3-dihydrobenzofuran-6-yl)amino)ethyl)-1-methyl-1H-pyrazole-5-carboxamide]",53.3 nM,27.1 nM
"CNC(=O)C1(N2C[C@@H](C(C)C)NC2=O)Cc2ccc(NC(=O)[C@@H](NC(=O)c3cnn(C)c3)C3CCCCC3)cc2C1 (stereo partly drawn) [Example 61, N-((1S)-1-cyclohexyl-2-((2-((R)-4-isopropyl-2-oxoimidazolidin-1-yl)-2-(methylcarbamoyl)-2,3-dihydro-1H-inden-5-yl)amino)-2-oxoethyl)-1-methyl-1H-pyrazole-4-carboxamide]",4960 nM,857 nM
"Cc1nonc1C(=O)N[C@H](C(=O)Nc1ccc2c(c1)CC(C(=O)Nc1cccc(F)c1)(N1C[C@@H](C(C)C)NC1=O)C2)C(C1CC1)C1CC1 (stereo partly drawn) [Example 236, N-((2S)-1,1-dicyclopropyl-3-((2-((3-fluorophenyl)carbamoyl)-2-((R)-4-isopropyl-2-oxoimidazolidin-1-yl)-2,3-dihydro-1H-inden-5-yl)amino)-3-oxopropan-2-yl)-4-methyl-1,2,5-oxadiazole-3-carboxamide]",537 nM,245 nM
"Cc1nonc1C(=O)N[C@H](C(=O)Nc1ccc2c(c1)CC(C(=O)NC1CCC(F)(F)CC1)(N1CC3(CC3)CNC1=O)C2)C1CCC(F)(F)CC1 (stereo partly drawn) [Example 191, N-((1S)-1-(4,4-difluorocyclohexyl)-2-((2-((4,4-difluorocyclohexyl)carbamoyl)-2-(6-oxo-5,7-diazaspiro[2.5]octan-5-yl)-2,3-dihydro-1H-inden-5-yl)amino)-2-oxoethyl)-4-methyl-1,2,5-oxadiazole-3-carboxamide]",168 nM,76.9 nM
"CNC(=O)C1(N2CC(C(C)C)NC2=O)Cc2cc3nc([C@@H](NC(=O)c4ccnn4C)C4CCCCC4)[nH]c3cc2C1 (stereo partly drawn) [Example 28, 2-((S)-cyclohexyl(1-methyl-1H-pyrazole-5-carboxamido)methyl)-6-(4-isopropyl-2-oxoimidazolidin-1-yl)-N-methyl-1,5,6,7-tetrahydroindeno[5,6-d]imidazole-6-carboxamide]",76.5 nM,394 nM
"COCC1(N2CC3(CC3)CNC2=O)Cc2ccc(NC(=O)[C@@H](NC(=O)c3ccnn3C(C)C)C(C3CC3)C3CC3)cc2C1 (stereo partly drawn) [Example 160, N-((2S)-1,1-dicyclopropyl-3-((2-(methoxymethyl)-2-(6-oxo-5,7-diazaspiro[2.5]octan-5-yl)-2,3-dihydro-1H-inden-5-yl)amino)-3-oxopropan-2-yl)-1-isopropyl-1H-pyrazole-5-carboxamide]",93.1 nM,110 nM
"Cc1nonc1C(=O)N[C@H](C(=O)Nc1ccc2c(c1)CC(C(O)C(F)(F)F)(N1C[C@@H](C(C)C)NC1=O)C2)C(C1CC1)C1CC1 (stereo partly drawn) [Example 238, N-((2S)-1,1-dicyclopropyl-3-((2-((R)-4-isopropyl-2-oxoimidazolidin-1-yl)-2-(2,2,2-trifluoro-1-hydroxyethyl)-2,3-dihydro-1H-inden-5-yl)amino)-3-oxopropan-2-yl)-4-methyl-1,2,5-oxadiazole-3-carboxamide]",137 nM,222 nM
"CNC(=O)C1(N2C[C@@H](C(C)C)NC2=O)Cc2cc(F)c(NC(=O)[C@@H](NC(=O)c3ccnn3C)C3CCCCC3)cc2C1 (stereo partly drawn) [Example 119, N-((1S)-1-cyclohexyl-2-((6-fluoro-2-((R)-4-isopropyl-2-oxoimidazolidin-1-yl)-2-(methylcarbamoyl)-2,3-dihydro-1H-inden-5-yl)amino)-2-oxoethyl)-1-methyl-1H-pyrazole-5-carboxamide]",144 nM,73 nM
"Cc1nonc1C(=O)N[C@H](C(=O)Nc1ccc2c(c1)CC(C#N)(N1CC3(CC3)CNC1=O)C2)C(C1CC1)C1CC1 (stereo partly drawn) [Example 226, N-((2S)-1-((2-cyano-2-(6-oxo-5,7-diazaspiro[2.5]octan-5-yl)-2,3-dihydro-1H-inden-5-yl)amino)-3,3-dicyclopropyl-1-oxopropan-2-yl)-4-methyl-1,2,5-oxadiazole-3-carboxamide]",225 nM,50.4 nM
"CNC(=O)C1(N2C[C@@H](C(C)C)NC2=O)Cc2ccc(NC(=O)[C@@H](NC(=O)c3ccnn3C)C3CCCCCC3)cc2C1 (stereo partly drawn) [Example 47, N-((1S)-1-cycloheptyl-2-((2-((R)-4-isopropyl-2-oxoimidazolidin-1-yl)-2-(methylcarbamoyl)-2,3-dihydro-1H-inden-5-yl)amino)-2-oxoethyl)-1-methyl-1H-pyrazole-5-carboxamide]",11.6 nM,11 nM
